Experimental data: patent US20240226160A9, “ACTIVITY-INDUCIBLE FUSION PROTEINS HAVING A HEAT SHOCK PROTEIN 90 BINDING DOMAIN” (Seattle Children's Hospital d/b/a Seattle Children's …, priority 2021, published 2024)
Positions count from the first letter of the chain named.

Assays:
[1] = test system: huCD19CAR-EBD(4OHT); experiment: Anti-CD3zeta western blot with band quantification; format: cell-based; details: 500 nM, 24 hr incubation, vs 0 nM
Procedure: FIG. 26. Anti-zeta Western Blot evaluating huCD19CAR-EBD(4OHT) with differing Glycine linkers in 0 nM and 500 nM of 4OHT OR (Z)-endoxifen. Protein processing and expression of huCD19CAR-EBD with different linkers between the CAR and the EBD was evaluated using an anti-CD3zeta western blot analysis. Whole cell lysates were made for the huCD19CAR-EBD(4OHT) T cell lines with either a 1Glycline, 2Glycine or 3Glycine linker between the CAR and EBD domains in 0 nM and 500 nM 4OHT/(Z)-endoxifen drug conditions following a 24 hr incubation. Whole cell lysates were also made for the Mock T cell line and the CAR alone T cell line under the same conditions. The western blot was imaged and analyzed on the LiCOR Odyssey. Additionally, protein band quantification was performed using the LiCOR Odyssey. CAR zeta chain expression is observed for all CAR-1/2/3Glylinker-EBD lines in both the no drug and maximum drug conditions.

[2] = biological target: T1, B7H3CAR-3Gly-EBD(4OHT) (Homo sapiens, UniProt P03372, G400V/L544A/M543A); experiment: Chromium release assay, specific cell lysis; format: cell-based
T1 construct: expressed in transfected cells; T cells by b52 and b55
T1 sequence (P03372 282-595 G400V/M543A/L544A): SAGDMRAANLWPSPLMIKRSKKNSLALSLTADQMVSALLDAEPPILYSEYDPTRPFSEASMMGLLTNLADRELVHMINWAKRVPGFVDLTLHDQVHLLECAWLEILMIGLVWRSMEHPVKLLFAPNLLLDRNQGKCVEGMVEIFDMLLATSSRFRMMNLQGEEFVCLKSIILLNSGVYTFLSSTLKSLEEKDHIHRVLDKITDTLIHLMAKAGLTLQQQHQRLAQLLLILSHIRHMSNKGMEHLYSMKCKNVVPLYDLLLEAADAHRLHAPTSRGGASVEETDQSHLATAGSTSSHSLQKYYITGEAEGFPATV
Procedure: FIG. 18. […] Specific cell lysis was evaluated using a chromium release assay. […] Following the 4 hr incubation the Perkin Elmer TopCount was used to quantify the amount of Cr51 released into each well as tumor lysis occurred.

[3] = biological target: T1, B7H3CAR-3Gly-EBD(4OHT); experiment: Meso Scale Diagnostic cytokine release assay; format: cell-based; details: 24 hr drug culture 0-500 nM, 24 hr co-incubation with tumor lines
Procedure: FIGS. 19A, 19B. […] (20A and 20B) Cytokine release was evaluated using a Meso Scale Diagnostic assay. […] Following the 24 hr incubation the supernatant from each co-incubation was collected and run on the MESO QuickPlex SQ 120 instrument to ascertain the amount of cytokine released.

[4] = biological target: T2, EBD(ES8) (Homo sapiens, UniProt P03372, E353A); experiment: CD107a activation assay (flow cytometry MFI); format: cell-based; details: for CD107a response of EBD(ES8) to drug: 24 hr preconditioning, 4 hours co-culture
T2 sequence (P03372 282-595 E353A): T1 sequence (P03372 282-595 G400V/M543A/L544A) with E72A, V119G, A262M, A263L
Procedure: FIGS. 28A, 28B. (28A) CD107a activation assay: huCD19CAR-EBD(4OHT) linker variants vs K562+CD19t. […] To achieve this, T cells (including mock and constitutively active CAR controls) were preconditioned with target drug concentration(s) for 24 hrs, then exposed to a tumor line expressing their target antigen (CD19 or B7H3). After 4 hours of co-culture with target tumors at various drug concentrations, the T cells were assessed for a) activation and degranulation by staining for CD107a and b) cell surface CAR-EBD by staining for human scFv (which works for both B7H3CAR and huCD19CAR), then running on flow cytometry. MFI (median fluorescence intensity) was determined for each stain on each sample under each condition and plotted on a log scale of drug concentration. EC10 and EC90 (effective concentration 10% and 90%) were calculated in Graphpad Prism for CD107a expression and function as estimates for the drug concentration required for each construct to turn “on” or “off”. Positive and negative controls for each CAR are presented in the bar graph. […] EBD(4OHT) responds to 4-OHT and (Z)-endoxifen, but not to CMP8 or ES8. The responsiveness of degranulation to target antigen in the presence of inducer molecule is largely similar between the Gly linker variants. EBD(4OHT) is very sensitive to its intended inducer molecules, beginning to activate (EC10) at single nanomolar concentrations and becoming fully activated (EC90) at double digit nanomolar concentrations. […] Both EBD(CMP8) and EBD(ES8) respond to 4OHT.

[5] = biological target: T3, B7H3 EBD(CMP8) CAR (Homo sapiens, UniProt P03372, G521R/L384M/M421G); experiment: Jurkat iSynPro eGFP:ffluc reporter assay (GFP by flow cytometry); format: cell-based
T3 construct: expressed in transfected cells; host or cells: clonal Jurkat iSynPro eGFP:ffluc reporter cell line (transduced)
T3 sequence (P03372 282-595 L384M/M421G/G521R): T1 sequence (P03372 282-595 G400V/M543A/L544A) with L103M, V119G, M140G, G240R, A262M, A263L
Procedure: FIG. 11. Design of B7H3 CAR EBD mutant study. […] Jurkat iSynPro lines included cJ10792: Jurkat iSynPro-GFP:ffluc; cJ13093: Jurkat iSynPro-GFP:ffluc+B7H3 CAR; cJ13094: Jurkat iSynPro-GFP:ffluc+B7H3 CAR EBD (4-OHT); and cJ13095: Jurkat iSynPro-GFP:ffluc+B7H3 CAR EBD (CMP8) with a K562 parental target. 4-OHT and CMP8 concentrations of 0 nM, 500 nM and 1000 nM were tested for each cell line.
FIG. 16. Design of activation curve study. The objective of the study was to examine activation curves of CAR EBD Jurkat iSynPro lines in an increasing presence of 4-OHT, (Z)-endoxifen, or CMP8.
FIG. 9 (top) depicts a schematic of Jurkat iSynPro eGFP:ffluc reporter cells. Jurkat iSynPro eGFP:ffluc reporter cells feature a Jurkat cell line lentivirally transduced to stably express a inducible synthetic promoter (iSynPro WO2018213332A1) regulating the expression of an enhanced green fluorescent protein (eGFP) fused to bioluminescent reporter firefly luciferase (ffluc). This line was then clonally selected by limiting dilution. […]
Jurkat iSynPro eGFP:ffluc assays are also depicted in FIG. 9 (bottom). […] At the 24 hr timepoint, cells were collected and evaluated by flow cytometry. Cells were initially stained for CD33 to gate out target cell lines before they were evaluated for GFP expression by positivity and/or mean fluorescence intensity (MFI). […]

[6] = biological target: T4, B7H3CAR-3Gly-EBD variants (Homo sapiens, UniProt P03372, G521R/L384M/M421G); details: B7H3CAR-3Gly-EBD(CMP8) vs K562+mCherry, drug added at 24 hrs
T4 sequence (P03372 282-595 L384M/M421G/G521R): T1 sequence (P03372 282-595 G400V/M543A/L544A) with L103M, V119G, M140G, G240R, A262M, A263L
Procedure: (31A) Incucyte Cytotoxicity Assay: B7H3CAR-3Gly-EBD variants. CD4 and CD8 T cells (mixed at a 1:1 ratio) expressing a either B7H3CAR-3Gly-EBD(4OHT), B7H3CAR-3Gly-EBD(CMP8), or B7H3CAR-3Gly-EBD(ES8) were either preincubated for 24 hrs with 500 nM inducer drug or not preincubated. These T cells were subsequently plated with CAR-target expressing tumor lines (K562, and/or Be2) constitutively expressing mCherry (for detection and quantification). […] Plates were placed inside of an Incucyte and imaged every 3-4 hours for several days. mCherry signal was then quantified and plotted as a function of time. […]
(32A-32C) CD4 and CD8 T cells (mixed at a 1:1 ratio) expressing either B7H3CAR-3Gly-EBD(4OHT), B7H3CAR-3Gly-EBD(CMP8), or B7H3CAR-3Gly-EBD(ES8) (were either preincubated for 24 hrs with 500 nM inducer drug or not preincubated (B7H3CAR-3Gly-EBD(4OHT) received 500 nM 4OHT, B7H3CAR-3Gly-EBD(CMP8) received 500 nM CMP8, B7H3CAR-3Gly-EBD(ES8) received 500 nM ES8). These T cells were subsequently plated with CAR-target expressing tumor lines (K562, and/or Be2) constitutively expressing mCherry (for detection and quantification). Tumors were plated at 10,000 per well, and co-culture was performed at a 4:1 ratio (T cell:tumor cell) with or without the appropriate drug at 500 nM. […]

CC/C(=C(\c1ccc(O)cc1)c1ccc(OCCN(C)C)cc1)c1ccccc1 [4-OHT, 4-hydroxytamoxifen]
increase in CAR-EBD protein expression (zeta chain band quantification) [1]: ~3 fold

CC/C(=C(\c1ccc(O)cc1)c1ccc(OCCNC)cc1)c1ccccc1 [(Z)-endoxifen]
increase in CAR-EBD protein expression (zeta chain band quantification) [1]: ~3 fold

O=C1CCC2(Cc3ccc(Cl)cc3)Cc3cc(O)ccc3C2=C1c1ccc(OCCN2CCCCC2)cc1 (centres unmarked) [CMP8]
specific lysis ([2]; 500 nM): 0% | regulation of CAR activity (specific cell lysis) ([2]; 24 hr drug culture 0-500 nM, 4 hr co-incubation with Cr-51 tumor line): is not regulated by | regulation of CAR activity (cytokine release) [3]: is not regulated by | CD107a response of EBD(ES8) to drug [4]: does not respond to | induction of expression at lowest drug level ([5]; 0.49 nM of drug): still observed | response of EBD(CMP8) mutant (GFP induction) ([5]; K562 target, 24 hr): response | change in tumor growth kinetics once activated [6]: immediate

C[C@]12CC[C@@H]3c4ccc(/C=C/C(=O)O)cc4CC[C@H]3[C@@H]1CC[C@@H]2O [ES8]
CD107a response of EBD(ES8) to drug [4]: very sensitive to induction | maximum magnitude of induction ([4]; CD107a): less than its induction with 4OHT
